Our source for the Kd values is patent US10647713B2 (Nimbus Lakshmi, Inc., priority 2016, dated 2020).

Sequence of human TYK2 (JH2domain-pseudokinase) (P29597 556-888): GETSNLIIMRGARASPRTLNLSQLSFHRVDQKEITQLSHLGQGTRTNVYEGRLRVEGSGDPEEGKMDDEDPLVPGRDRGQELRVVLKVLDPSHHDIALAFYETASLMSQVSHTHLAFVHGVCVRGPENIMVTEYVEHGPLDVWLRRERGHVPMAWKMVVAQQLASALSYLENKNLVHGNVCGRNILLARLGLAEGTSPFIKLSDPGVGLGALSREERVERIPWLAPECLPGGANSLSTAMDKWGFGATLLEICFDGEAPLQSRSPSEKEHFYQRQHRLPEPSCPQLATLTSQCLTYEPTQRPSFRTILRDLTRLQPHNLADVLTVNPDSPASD

This assay addresses human TYK2 (JH2domain-pseudokinase) (Homo sapiens (Human), UniProt P29597). The experiment in a line: TYK2 JH2 Domain Binding Assay (KINOMEscan, DiscoveRx). Conditions: 11-point dilution, duplicate. An outline of the steps: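 Kd from duplicate 11-point 3-fold dilutions starting at 30,000 nM, fitted by Hill equation with slope fixed at −1. Compounds (final 0.9% DMSO) displace DNA-tagged HEK293-expressed TYK2 JH2 fusion (<0.1 nM) from ligand-coated beads over 1 h at room temperature; eluted kinase read by qPCR.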
What is called Kd is the free concentration of one partner at which half of the binding sites on the other are occupied at equilibrium, for simple one-to-one binding. A higher Kd goes with lower affinity. `Cc1nc2c(Nc3ccc(C4CCCO4)cc3S(C)(=O)=O)cc(NC(=O)C3CC3)nc2[nH]1` (centres unmarked) [I-334, N-(2-methyl-7-((2-(methylsulfonyl)-4-(tetrahydrofuran-2-yl)phenyl)amino)-3H-imidazo[4,5-b]pyridin-5-yl)cyclopropanecarboxamide] yielded a Kd below 0.1 nM.

In the case of `CS(=O)(=O)c1cc(C2CCCO2)ccc1Nc1cc(NC(=O)C2CC2)nc2[nH]c(C(F)F)nc12` (centres unmarked) [I-335, N-(2-(difluoromethyl)-7-((2-(methylsulfonyl)-4-(tetrahydrofuran-2-yl)phenyl)amino)-3H-imidazo[4,5-b]pyridin-5-yl)cyclopropanecarboxamide], the Kd was above 10 nM.

In turn, `Cc1nc2c(Nc3ccccc3[S+](C)[O-])cc(NC(=O)C3CC3)nc2[nH]1` (centres unmarked) [I-336, N-(2-methyl-7-((2-(methylsulfinyl)phenyl)amino)-3H-imidazo[4,5-b]pyridin-5-yl)cyclopropanecarboxamide] had a dissociation constant (Kd) of 1 to 10 nM.

`CS(=O)(=O)c1cc(C2CCOCC2)ccc1Nc1cc(NC(=O)C2CC2(F)F)nc2[nH]c(C(F)F)nc12` (centres unmarked) [I-337, N-(2-(difluoromethyl)-7-((2-(methylsulfonyl)-4-(tetrahydro-2H-pyran-4-yl)phenyl)amino)-3H-imidazo[4,5-b]pyridin-5-yl)-2,2-difluorocyclopropane-1-carboxamide] registered a Kd of 1 to 10 nM.

For `Cc1cc(-c2ccc(Nc3cc(NC(=O)C4CC4(F)F)nc4[nH]c(C(F)F)nc34)c(S(C)(=O)=O)c2)nn1C` (centres unmarked) [I-338, N-(2-(difluoromethyl)-7-((4-(1,5-dimethyl-1H-pyrazol-3-yl)-2-(methylsulfonyl)phenyl)amino)-3H-imidazo[4,5-b]pyridin-5-yl)-2,2-difluorocyclopropane-1-carboxamide], the Kd was 1 to 10 nM.

Turning to `Cc1nc2c(Nc3ccc(C4=NC(C)(C)CO4)cc3S(C)(=O)=O)cc(NC(=O)[C@H]3C[C@H]3F)nc2[nH]1` [I-339, (1R,2R)—N-(7-((4-(4,4-dimethyl-4,5-dihydrooxazol-2-yl)-2-(methylsulfonyl)phenyl)amino)-2-methyl-3H-imidazo[4,5-b]pyridin-5-yl)-2-fluorocyclopropane-1-carboxamide], the Kd lay within 1 to 10 nM.

Take `Cc1nc2c(Nc3ccc([C@H]4CCCO4)cc3S(C)(=O)=O)cc(NC(=O)C3CC3(F)F)nc2[nH]1` (stereo partly drawn) [I-340, 2,2-difluoro-N-(2-methyl-7-((2-(methylsulfonyl)-4-((R)-tetrahydrofuran-2-yl)phenyl)amino)-3H-imidazo[4,5-b]pyridin-5-yl)cyclopropane-1-carboxamide]: the Kd lay within 0.5 to 1 nM.

In the case of `Cc1cnc(-c2ccc(Nc3cc(Nc4cccc(C#N)n4)nc4[nH]c(C(F)F)nc34)c(S(C)(=O)=O)c2)n1C` [I-341], the Kd fell in the range of 0.1 to 0.5 nM.

As for `Cc1nc2c(Nc3ccc(-c4c(C)nn(C)c4C)cc3S(C)(=O)=O)cc(Nc3cnc(C)c(C)n3)nc2[nH]1` [I-342], the Kd fell in the range of 0.1 to 0.5 nM.

With `Cc1ncc(Nc2cc(Nc3ccc(-c4c(C)nn(C)c4C)cc3S(C)(=O)=O)c3nc(C(F)F)[nH]c3n2)nc1C` [I-343], the Kd lay within 0.1 to 0.5 nM.

For the molecule `Cc1cc(Nc2cc(Nc3ccc(-c4c(C)nn(C)c4C)cc3S(C)(=O)=O)c3nc(C)[nH]c3n2)nc(C)n1` [I-344], the Kd was in the range of 0.1 to 0.5 nM.

In turn, `Cc1cc(Nc2cc(Nc3ccc(-c4c(C)nn(C)c4C)cc3S(C)(=O)=O)c3nc(C(F)F)[nH]c3n2)nc(C)n1` [I-345] returned a Kd of 0.1 to 0.5 nM.

`Cc1nc2c(Nc3ccc(C4=NC(C)(C)CS4)cc3S(C)(=O)=O)cc(NC(=O)C3CC3(F)F)nc2[nH]1` (centres unmarked) [I-346] displayed a Kd above 10 nM.

`Cc1nn(C)c(C)c1-c1ccc(Nc2cc(Nc3cccc(C#N)n3)nc3[nH]c(C(F)F)nc23)c(S(C)(=O)=O)c1` [I-347]: the Kd fell in the range of 0.1 to 0.5 nM.

Molecule `Cc1nc2c(Nc3ccc([C@@H]4CCCO4)cc3S(C)(=O)=O)cc(NC(=O)C3CC3(F)F)nc2[nH]1` (stereo partly drawn) [I-348, 2,2-difluoro-N-(2-methyl-7-((2-(methylsulfonyl)-4-((S)-tetrahydrofuran-2-yl)phenyl)amino)-3H-imidazo[4,5-b]pyridin-5-yl)cyclopropane-1-carboxamide] registered a Kd of 0.1 to 0.5 nM.

`COc1c(Nc2cc(Nc3cccc(C#N)n3)nc3[nH]c(C(F)F)nc23)cccc1-c1nc(C)cs1` [I-349] yielded a Kd of 1 to 10 nM.

Consider `Cc1c(-c2ccc(Nc3cc(NC(=O)C4CC4)nc4[nH]c(C(F)F)nc34)c(S(C)(=O)=O)c2)nn(C)c1C` [I-350], for which the Kd lay in the range of 0.1 to 0.5 nM.

Take `CC1(C)CSC(c2ccc(Nc3cc(NC(=O)C4CC4(F)F)nc4[nH]c(C(F)F)nc34)c(S(C)(=O)=O)c2)=N1` (centres unmarked) [I-351, N-(2-(difluoromethyl)-7-((4-(4,4-dimethyl-4,5-dihydrothiazol-2-yl)-2-(methylsulfonyl)phenyl)amino)-3H-imidazo[4,5-b]pyridin-5-yl)-2,2-difluorocyclopropane-1-carboxamide]: the Kd was above 10 nM.

In the case of `Cc1nc2c(Nc3ccc(-c4ncc(C)n4C)cc3S(C)(=O)=O)cc(Nc3cccc(C#N)n3)nc2[nH]1` [I-352], the Kd lay within 0.1 to 0.5 nM.

In the case of `CC1(C)CC[C@@H](c2ccc(Nc3cc(NC(=O)C4CC4)nc4[nH]c(C(F)F)nc34)c(S(C)(=O)=O)c2)OC1` [I-353], the dissociation constant (Kd) was 0.1 to 0.5 nM.

`CC1(C)CC[C@H](c2ccc(Nc3cc(NC(=O)C4CC4)nc4[nH]c(C(F)F)nc34)c(S(C)(=O)=O)c2)OC1` [I-354] registered a Kd of 1 to 10 nM.

As to `Cc1nc2c(Nc3ccc(-c4c(C)nn(C)c4C)cc3S(C)(=O)=O)cc(Nc3cccc(C#N)n3)nc2[nH]1` [I-355], the Kd is 0.1 to 0.5 nM.

The molecule `CC1(C)CCC(c2ccc(Nc3cc(NC(=O)C4CC4)nc4[nH]c(C(F)F)nc34)c(S(C)(=O)=O)c2)OC1` (centres unmarked) [I-356] showed a Kd of 0.1 to 0.5 nM.

In the case of `Cc1nc2c(Nc3ccc(C4CC(C)(C)OC(C)(C)C4)cc3S(C)(=O)=O)cc(NC(=O)C3CC3)nc2[nH]1` [I-357], the Kd was 1 to 10 nM.

For `CS(=O)(=O)c1cc(C2CCC2)ccc1Nc1cc(NC(=O)C2CC2(F)F)nc2[nH]c(C(F)F)nc12` (centres unmarked) [I-358, N-(7-((4-cyclobutyl-2-(methylsulfonyl)phenyl)amino)-2-(difluoromethyl)-3H-imidazo[4,5-b]pyridin-5-yl)-2,2-difluorocyclopropane-1-carboxamide], the dissociation constant Kd was above 10 nM.

For the molecule `CS(=O)(=O)c1cc([C@@H]2CCCOC2)ccc1Nc1cc(NC(=O)C2CC2(F)F)nc2[nH]c(C(F)F)nc12` (stereo partly drawn) [I-359, N-(2-(difluoromethyl)-7-((2-(methylsulfonyl)-4-((S)-tetrahydro-2H-pyran-3-yl)phenyl)amino)-3H-imidazo[4,5-b]pyridin-5-yl)-2,2-difluorocyclopropane-1-carboxamide], the Kd lay within 1 to 10 nM.

In turn, `CS(=O)(=O)c1cc([C@H]2CCCOC2)ccc1Nc1cc(NC(=O)C2CC2(F)F)nc2[nH]c(C(F)F)nc12` (stereo partly drawn) [I-360, N-(2-(difluoromethyl)-7-((2-(methylsulfonyl)-4-((R)-tetrahydro-2H-pyran-3-yl)phenyl)amino)-3H-imidazo[4,5-b]pyridin-5-yl)-2,2-difluorocyclopropane-1-carboxamide] yielded a Kd of 1 to 10 nM.

`Cc1nc2c(Nc3ccc(C4CCC4)cc3S(C)(=O)=O)cc(NC(=O)C3CC3(F)F)nc2[nH]1` (centres unmarked) [I-361, N-(7-((4-cyclobutyl-2-(methylsulfonyl)phenyl)amino)-2-methyl-3H-imidazo[4,5-b]pyridin-5-yl)-2,2-difluorocyclopropane-1-carboxamide]: the Kd is 1 to 10 nM.

`CN=S(C)(=O)c1ccccc1Nc1cc(NC(=O)C2CC2)nc2[nH]c(C(F)F)nc12` (centres unmarked) [I-362] displayed a Kd of 0.1 to 0.5 nM.

`Cc1nc2c(Nc3ccc(-c4nn(C)cc4C)cc3S(C)(=O)=O)cc(NC(=O)C3CC3(C)C)nc2[nH]1` (centres unmarked) [I-363, N-(7-((4-(1,4-dimethyl-1H-pyrazol-3-yl)-2-(methylsulfonyl)phenyl)amino)-2-methyl-3H-imidazo[4,5-b]pyridin-5-yl)-2,2-dimethylcyclopropane-1-carboxamide]: the Kd is 1 to 10 nM.

Molecule `Cc1cn(C)nc1-c1ccc(Nc2cc(NC(=O)C3CC3(C)C)nc3[nH]c(C(F)F)nc23)c(S(C)(=O)=O)c1` (centres unmarked) [I-364, N-(2-(difluoromethyl)-7-((4-(1,4-dimethyl-1H-pyrazol-3-yl)-2-(methylsulfonyl)phenyl)amino)-3H-imidazo[4,5-b]pyridin-5-yl)-2,2-dimethylcyclopropane-1-carboxamide] showed a Kd of 1 to 10 nM.

`CS(=O)(=O)c1cc(C2CCCCO2)ccc1Nc1cc(Nc2cccc(C(F)(F)F)n2)nc2[nH]c(C(F)F)nc12` (centres unmarked) [I-365, 2-(difluoromethyl)-N7-(2-(methylsulfonyl)-4-(tetrahydro-2H-pyran-2-yl)phenyl)-N5-(6-(trifluoromethyl)pyridin-2-yl)-3H-imidazo[4,5-b]pyridine-5,7-diamine] showed a Kd of 0.5 to 1 nM.

Turning to `Cc1cc(Nc2cc(Nc3ccc(C4CCCCO4)cc3S(C)(=O)=O)c3nc(C(F)F)[nH]c3n2)nc(C)n1` (centres unmarked) [I-366, 2-(difluoromethyl)-N5-(2,6-dimethylpyrimidin-4-yl)-N7-(2-(methylsulfonyl)-4-(tetrahydro-2H-pyran-2-yl)phenyl)-3H-imidazo[4,5-b]pyridine-5,7-diamine], the Kd is below 0.1 nM.

`Cc1cc(Nc2cc(Nc3ccc(C4CCCCO4)cc3S(C)(=O)=O)c3nc(C)[nH]c3n2)nc(C)n1` (centres unmarked) [I-367, N5-(2,6-dimethylpyrimidin-4-yl)-2-methyl-N7-(2-(methylsulfonyl)-4-(tetrahydro-2H-pyran-2-yl)phenyl)-3H-imidazo[4,5-b]pyridine-5,7-diamine] yielded a Kd below 0.1 nM.

Regarding `CN(c1cc(C2CCCCO2)ccc1Nc1cc(NC(=O)C2CC2)nc2[nH]c(C(F)F)nc12)S(C)(=O)=O` (centres unmarked) [I-369, N-(2-(difluoromethyl)-7-((2-(N-methylmethylsulfonamido)-4-(tetrahydro-2H-pyran-2-yl)phenyl)amino)-3H-imidazo[4,5-b]pyridin-5-yl)cyclopropanecarboxamide], the Kd is 0.1 to 0.5 nM.
